Experiments:
Experiment in all cases: relative viability (nuclei count vs DMSO), 5 days (fraction); higher = more cells survive
[1] = compound: O=S(=O)(c1ccccc1)N(CC(F)(F)F)c1ccc(C(O)(C(F)(F)F)C(F)(F)F)cc1 + CS(=O)(=O)CCNCc1ccc(-c2ccc3ncnc(Nc4ccc(OCc5cccc(F)c5)c(Cl)c4)c3c2)o1 [Lapatinib] (partner 2 µM)
Summary of the method: (§1)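 Medians of duplicate plates are given as relative viability. That measure is the nuclei count in treated wells divided by the count in vehicle wells. Counts were taken on 4× images of lung cancer cell lines in 1536-well plates, 5 days after pin-tool dosing the day after seeding with one drug alone or a fixed anchor-drug dose plus five library-drug doses (not always all listed) in √10 steps.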

[2] = compound: O=S(=O)(c1ccccc1)N(CC(F)(F)F)c1ccc(C(O)(C(F)(F)F)C(F)(F)F)cc1 + CS(=O)(=O)N1CCN(Cc2cc3nc(-c4cccc5[nH]ncc45)nc(N4CCOCC4)c3s2)CC1 [Pictilisib] (partner 1 µM)
Summary of the method: as §1

[3] = compound: O=S(=O)(c1ccccc1)N(CC(F)(F)F)c1ccc(C(O)(C(F)(F)F)C(F)(F)F)cc1 + CC(C)C[C@H](NC(=O)[C@H](Cc1ccccc1)NC(=O)c1cnccn1)B(O)O [Bortezomib] (partner 0.002 µM)
Summary of the method: as §1

RO-3306 + Palbociclib = compound: C1=CC2=C(C=CC(=C2)C=C3C(=O)NC(=NCC4=CC=CS4)S3)N=C1 [RO-3306] + CC(=O)c1c(C)c2cnc(Nc3ccc(N4CCNCC4)cn3)nc2n(C2CCCC2)c1=O [Palbociclib] (partner 0.5 µM)
Summary of the method: as §1

RO-3306 + Lapatinib = compound: C1=CC2=C(C=CC(=C2)C=C3C(=O)NC(=NCC4=CC=CS4)S3)N=C1 [RO-3306] + CS(=O)(=O)CCNCc1ccc(-c2ccc3ncnc(Nc4ccc(OCc5cccc(F)c5)c(Cl)c4)c3c2)o1 [Lapatinib] (partner 2 µM)
Summary of the method: as §1

Row | Cell Line | relative viability ([1]; first compound 0.8 µM) | relative viability ([1]; first compound 2.53 µM) | relative viability ([1]; first compound 8 µM) | relative viability ([2]; first compound 0.8 µM) | relative viability ([2]; first compound 2.53 µM) | relative viability ([2]; first compound 8 µM) | relative viability ([3]; first compound 0.8 µM) | relative viability ([3]; first compound 2.53 µM) | relative viability ([3]; first compound 8 µM) | relative viability (RO-3306 + Palbociclib; first compound 0.01 µM) | relative viability (RO-3306 + Palbociclib; first compound 0.03162 µM) | relative viability (RO-3306 + Palbociclib; first compound 0.1 µM) | relative viability (RO-3306 + Palbociclib; first compound 0.3162 µM) | relative viability (RO-3306 + Palbociclib; first compound 1 µM) | relative viability (RO-3306 + Lapatinib; first compound 0.01 µM) | relative viability (RO-3306 + Lapatinib; first compound 0.03162 µM) | relative viability (RO-3306 + Lapatinib; first compound 0.1 µM) | relative viability (RO-3306 + Lapatinib; first compound 0.3162 µM) | relative viability (RO-3306 + Lapatinib; first compound 1 µM)
1 | NCI-H2126 | 0.868 | 0.791 | 0.905 | 0.489 | 0.513 | 0.5 | 1.26 | 1.1 | 1.12 | 0.326 | 0.363 | 0.369 | 0.346 | 0.373 | 0.644 | 0.719 | 0.742 | 0.76 | 0.747
2 | LXF-289 | 0.797 | 0.775 | 0.758 | 0.624 | 0.637 | 0.588 | 0.952 | 0.899 | 0.898 | 0.62 | 0.631 | 0.627 | 0.577 | 0.616 | 0.918 | 0.919 | 0.947 | 0.893 | 0.787
3 | NCI-H1734 | 1.24 | 1.13 | 0.934 | 0.549 | 0.48 | 0.429 | 1.18 | 0.917 | 1.07 | 0.39 | 0.321 | 0.333 | 0.429 | 0.34 | 1.06 | 0.834 | 1.03 | 1.07 | 0.808
4 | NCI-H2087 | 0.922 | 0.988 | 0.994 | 0.868 | 0.993 | 0.848 | 0.915 | 0.82 | 0.793 | 0.226 | 0.233 | 0.171 | 0.238 | 0.197 | 0.894 | 1.12 | 1.02 | 0.968 | 0.889
5 | NCI-H460 | – | 0.834 | 0.779 | 0.436 | 0.333 | 0.362 | 1.29 | 1.03 | 1.02 | 0.191 | 0.12 | 0.142 | 0.26 | 0.136 | 1.64 | – | 0.958 | 1.18 | 1.25
6 | A-427 | 1.04 | 0.919 | 1.1 | 0.708 | 0.677 | 0.822 | 0.973 | 0.916 | 1.07 | 0.502 | 0.513 | 0.545 | 0.57 | 0.516 | 1.08 | 0.986 | 1.05 | 1.03 | 0.448

From the supplement of paper PMC10307832
